In patent US5837483A, “Enzymatic method for producing N-formyl-α-L-aspartyl-L-phenylalanine methyl ester” (Holland Sweetener Company V.o.F., priority 1996, dated 1998):
Values belong to the compound of their own block, whether it stands above or below them. Residues, ends and D or L forms follow the SMILES beside them. *: point of attachment. For = O=C*

Experiments:
[1] = relative to cane sugar; cited from earlier work
[2] = Partition of F-L-Asp between water-immiscible organic solvent and aqueous phase (distribution ratio, eq. 2); assay type: physicochemical; conditions: for PF-A-Asp / pKa: 40° C
Text: Moreover, organic solvents of which distribution ratios of F-L-Asp (DF-L-Asp) described by following equation (2) are 10^-4 or less at pH=6.0 are suitable for increase of conversion ratios to F-APM because large amount of F-L-Asp can be distributed in aqueous phase: [formula] wherein
PF-L-Asp =(CF-L-Asp)org /(CF-L-Asp)aq(2a);
KF-L-Asp1 ={(Cf-L-Asp.spsb.-)aq ×CH.spsb.+
KF-l=Asp2 ={(CF-L-Asp.spsb.2-)aq ×CH.spsb.+
}/(CF-L-Asp.spsb.-)aq (2c);
(CF-L-Asp)org : concentration of F-L-Asp contained in the organic phase after the extraction of F-APM;
(CF-L-Asp)aq : concentration of F-L-Asp remained in the aqueous phase after the extraction of F-APM;
(CF-L-Asp.spsb.-)aq : concentration of F-L-Asp^- remained in the aqueous phase after the extraction of F-APM;
CH.spsb.+ : concentration of H^+ remained in the aqueous phase after the extraction of F-APM;
(CF-L-Asp.spsb.2-)aq : concentration of F-L-Asp^2- remained in the aqueous phase after the extraction of F-APM.
PF-L-Asp, KF-L-Asp1 and KF-L-Asp2 were obtained by the partition model of F-L-Asp described by following scheme 2: [drawing 2]
Furthermore, above equation (2) was obtained by following equation (4): [formula]
(§1) 10 ml of organic solvent saturated by water and 10 ml of aqueous solution saturated by organic solvent were entered into sample tube, and 50 mM of F-L-Asp was dissolved in said organic solvent saturated by water and 50 mM of F-APM was dissolved in said aqueous solution saturated by organic solvent.
As a value showing the ability to suppress transfer of F-L-Asp from aqueous phase to organic phase, DF-L-Asp described by equation (2) was used.
(§2) Measurements of these PF-APM and PF-L-Asp were carried out at 40° C.
(§3) DF-APM values of many kinds of organic solvent are shown in Table 1 wherein methyl isobutyl ketone, n-butylformate and butyl acetate are shown as comparative examples, and DF-L-Asp values of many kinds of organic solvent are shown in Table 2.

[3] = Partition of F-APM between water-immiscible organic solvent and aqueous phase (distribution ratio, eq. 1); assay type: physicochemical; conditions: for PF-APM / pKa: 40° C; for pKa: read-out: pKF-APM
Text: The water-immiscible solvents of which distribution ratios (DF-APM) described by following equation (1) are 10^-2 or more at pH=6.0 are suitable for effective the extraction of the F-APM produced to the organic phase: [formula] wherein
PF-APM =(CF-APM)org /(CF-APM)aq (1a);
KF-APM ={(CF-APM.spsb.-)aq ×CH.spsb.+
(CF-APM)org : concentration of F-APM contained in the organic phase after the extraction of F-APM;
(CF-APM)aq : concentration of F-APM remained in the aqueous phase after the extraction of F-APM;
(CF-APM.spsb.-)aq : concentration of F-APM^- remained in the aqueous phase after the extraction of F-APM;
CH.spsb.+ : concentration of H^+ remained in the aqueous phase after the extraction of F-APM.
Above PF-APM and KF-APM were obtained by following partition model of F-APM described by following scheme 1. [drawing 1]
Furthermore, above equation (1) was obtained by relation described by following equation (3). [formula]
as §1
As a value showing the ability of organic solvent to extract F-APM from aqueous phase, DF-ApM described by equation (1) were used.
as §2, §3

[4] = Batchwise biphase condensation reaction: F-APM in aqueous and organic phase by HPLC; assay type: physicochemical; conditions: tributyl phosphoric acid/aqueous enzyme solution pH=6.5, 40° C
Description: This example was carried out by batchwise operation in biphase system of aqueous phase and organic phase.
An enzyme aqueous solution of pH=6.5 containing 1.131 g/l of thermoase, 0.1M buffer agent (MES) and 0.01M CaCl2, and substrate tributyl phosphoric acid solution containing 88.15 mM of F-L-Asp and 120.97 mM of L-PM were prepared separately and were maintained at 40° C. Both 5 ml's of two solutions were mixed and the condensation reaction between F-L-Asp and L-PM was started. Concentrations of F-L-Asp, L-PM and F-APM were analyzed by HPLC.

[5] = methyl ethyl ketone/water, pH = 5
[6] = methyl ethyl ketone/water, pH = 6
[7] = methyl ethyl ketone/water, pH = 7
[8] = tri-butylphosphoric acid, n-amylalcohol, t-amylalcohol, 1-butanol, methyl ethyl ketone and isobutanol, pH=6.0
[9] = tri-butylphosphoric acid/water, pH = 5
[10] = tri-butylphosphoric acid/water, pH = 6
[11] = tri-butylphosphoric acid/water, pH = 7
[12] = butylacetate/water (comparative)
[13] = methyl isobutyl ketone/water (comparative)
[14] = n-butylformate/water (comparative)

SMILES: COC(=O)[C@H](Cc1ccccc1)NC(=O)[C@@H](N)CC(=O)O [aspartame, α-L-Aspartyl-L-phenylalanine methyl ester] (H-Asp-Phe-OMe)
sweetness of cane sugar [1]: about 200 times

PF-A-Asp ([2]; 1-butanol/water): 0.424
pKa ([2]; 1-butanol/water, read-out: pKF-L-Asp1): 2.99
pKa ([2]; 1-butanol/water, read-out: pKF-L-Asp2): 4.83
DF-L-Asp ([2]; 1-butanol/water, pH = 5): 16.6 ×10^-4
DF-L-Asp ([2]; 1-butanol/water, pH = 6): 0.262 ×10^-4
DF-L-Asp ([2]; 1-butanol/water, pH = 7): 0.00278 ×10^-4
PF-A-Asp ([2]; isobutanol/water): 0.356
pKa ([2]; isobutanol/water, read-out: pKF-L-Asp1): 3.11
pKa ([2]; isobutanol/water, read-out: pKF-L-Asp2): 4.44
DF-L-Asp ([2]; isobutanol/water, pH = 5): 9.9 ×10^-4
DF-L-Asp ([2]; isobutanol/water, pH = 6): 0.123 ×10^-4
DF-L-Asp ([2]; isobutanol/water, pH = 7): 0.00125 ×10^-4
PF-A-Asp ([2]; methyl ethyl ketone/water): 0.296
pKa ([2]; methyl ethyl ketone/water, read-out: pKF-L-Asp1): 3.43
pKa ([2]; methyl ethyl ketone/water, read-out: pKF-L-Asp2): 4.43
DF-L-Asp [2, 5]: 16.0 ×10^-4
DF-L-Asp [2, 6]: 0.201 ×10^-4
DF-L-Asp [2, 7]: 0.00206 ×10^-4
PF-A-Asp ([2]; n-amylalcohol/water): 0.166
pKa ([2]; n-amylalcohol/water, read-out: pKF-L-Asp1): 2.95
pKa ([2]; n-amylalcohol/water, read-out: pKF-L-Asp2): 4.17
DF-L-Asp ([2]; n-amylalcohol/water, pH = 5): 1.9 ×10^-4
DF-L-Asp ([2]; n-amylalcohol/water, pH = 6): 0.0216 ×10^-4
DF-L-Asp ([2]; n-amylalcohol/water, pH = 7): 0.00021 ×10^-4
PF-A-Asp ([2]; t-amylalcohol/water): 0.498
pKa ([2]; t-amylalcohol/water, read-out: pKF-L-Asp1): 3.16
pKa ([2]; t-amylalcohol/water, read-out: pKF-L-Asp2): 4.63
DF-L-Asp ([2]; t-amylalcohol/water, pH = 5): 21.4 ×10^-4
DF-L-Asp ([2]; t-amylalcohol/water, pH = 6): 0.294 ×10^-4
DF-L-Asp ([2]; t-amylalcohol/water, pH = 7): 0.00305 ×10^-4
pKa ([2]; tri-butyl phosphoric acid/water, read-out: pKF-L-Asp1): 3.18
pKa ([2]; tri-butyl phosphoric acid/water, read-out: pKF-L-Asp2): 4.44
DF-L-Asp values at pH=6.0 [2, 8]: ≤ 1×10^-4
PF-A-Asp ([2]; tri-butylphosphoric acid/water): 0.558
DF-L-Asp [2, 9]: 18.2 ×10^-4
DF-L-Asp [2, 10]: 0.226 ×10^-4
DF-L-Asp [2, 11]: 0.00231 ×10^-4
SMILES: O=CN[C@@H](CC(=O)O)C(=O)O [F-L-Asp, N-formyl-L-aspartic acid]

PF-APM ([3]; 1-butanol/water): 7.13
pKa ([3]; 1-butanol/water): 4.17
DF-APM ([3]; 1-butanol/water, pH = 5): 0.919
DF-APM ([3]; 1-butanol/water, pH = 6): 0.101
DF-APM ([3]; 1-butanol/water, pH = 7): 0.0105
PF-APM [3, 12]: 0.47
pKa [3, 12]: 4.02
DF-APM ([3]; butylacetate/water (comparative), pH = 5): 0.045
DF-APM ([3]; butylacetate/water (comparative), pH = 6): 0.0049
DF-APM ([3]; butylacetate/water (comparative), pH = 7): 0.00049
PF-APM ([3]; methyl ethyl ketone/water): 2.14
pKa ([3]; methyl ethyl ketone/water): 4.61
DF-APM [3, 5]: 0.556
DF-APM [3, 6]: 0.087
DF-APM [3, 7]: 0.0087
PF-APM [3, 13]: 0.80
pKa [3, 13]: 4.01
DF-APM ([3]; methyl isobutyl ketone/water (comparative), pH = 5): 0.074
DF-APM ([3]; methyl isobutyl ketone/water (comparative), pH = 6): 0.0080
DF-APM ([3]; methyl isobutyl ketone/water (comparative), pH = 7): 0.00082
PF-APM ([3]; n-amylalcohol/water): 3.70
pKa ([3]; n-amylalcohol/water): 4.22
DF-APM ([3]; n-amylalcohol/water, pH = 5): 0.527
DF-APM ([3]; n-amylalcohol/water, pH = 6): 0.0604
DF-APM ([3]; n-amylalcohol/water, pH = 7): 0.0061
PF-APM [3, 14]: 0.64
pKa [3, 14]: 4.17
DF-APM ([3]; n-butylformate/water (comparative), pH = 5): 0.083
DF-APM ([3]; n-butylformate/water (comparative), pH = 6): 0.0091
DF-APM ([3]; n-butylformate/water (comparative), pH = 7): 0.0012
PF-APM ([3]; t-amylalcohol/water): 6.89
pKa ([3]; t-amylalcohol/water): 4.21
DF-APM ([3]; t-amylalcohol/water, pH = 5): 0.866
DF-APM ([3]; t-amylalcohol/water, pH = 6): 0.107
DF-APM ([3]; t-amylalcohol/water, pH = 7): 0.0111
DF-APM values at pH=6.0 [3, 8]: ≥ 1×10^-2
PF-APM ([3]; tri-butylphosphoric acid/water): 13.0
pKa ([3]; tri-butylphosphoric acid/water): 4.01
DF-APM [3, 9]: 1.20
DF-APM [3, 10]: 0.13
DF-APM [3, 11]: 0.0133
SMILES: COC(=O)[C@H](Cc1ccccc1)NC(=O)[C@H](CC(=O)O)NC=O [F-APM, N-formyl-α-L-aspartyl-L-phenylalanine methyl ester] (For-Asp-Phe-OMe)
transfer of F-APM produced to the organic phase [4]: all F-APM produced were transferred to the organic phase
